Results published in patent publication US5972598A, “Methods for preventing multidrug resistance in cancer cells” (priority 1995, dated 1999).
“Also recorded” adds a separate entry of the source. Where two headings read alike, the source gives them in different places.

Key:
MDR1 [1] = test: Inhibition of cytotoxic drug (Ara-C) induced MDR1 expression by protein kinase inhibitors; type: cell-based, human
Procedure: FIG. 5. Effect of protein kinase inhibitors on MDR1 mRNA induction by cytotoxic drugs in H9 cells. […]
(§1) (Commercially-available kits (for example, from GIBCO/BRL, Gaithersburg, Md.) can be advantageously modified for making cDNA using random hexamers.) PCR is then performed using the following primers: […]
(where β2 M represents β2 microglobulin). PCR was performed for β2 M experiments under a regime consisting of 1 cycle comprising denaturation at 94° C. for 3 minutes, primer annealing at 60° C. for 30 seconds, and primer extension at 72° C. for 1 minute, followed by 19 cycles comprising denaturation at 94° C. for 30 seconds, primer annealing at 60° C. for 30 seconds, and primer extension at 72° C. for 1 minute, followed by a final cycle comprising denaturation at 94° C. for 30 seconds, primer annealing at 60° C. for 30 seconds, and primer extension at 72° C. for 5 minutes. MDR1 cDNA sequences were amplified using the identical protocol as for β2 M, but extending the amplification from 19 cycles to 25 cycles. In addition, the cDNA-PCR amplification protocol contained the following modifications: (i) Taq DNA polymerase was added to the PCR mixtures after initial heating of the samples to 94° C. (ii) The yield of the β2 -microglobulin-specific band, obtained after 22-28 cycles of PCR, was used as the primary criterion for equalizing the starting amounts of the cDNA templates in different preparations, in order to account for differential RNA degradation in cells subjected to different types of treatment. […] PCR products were detected by autoradiography.
(§2) Cells were plated in 6-well Falcon tissue culture plates at 3,300 cells per well, and incubated in the appropriate concentrations of drugs. Each of the protein kinase inhibitors to be tested were added at their appropriate final concentrations 45 minutes prior to MDR1 induction by the addition of Ara-C or TPA, with the exception of herbimycin A, which was added 12 hours prior to Ara-C or TPA, and tyrphostins A25 and B46, which were each added 16 hours prior to MDR1 induction by the addition of Ara-C or TPA. Cells were incubated overnight (TPA) or for 10 hours (Ara-C) at 37° C. under an atmosphere of 5% CO2 after the addition of the MDR1 inducing agents before harvesting for cDNA-PCR analysis.
In addition to these conditions, the analysis of certain drugs imposed added requirements. For experiments using calphostin C, cells were incubated under direct white light illumination. For experiments using D,L-threo-sphingosine, the cell culture medium was pre-treated with the appropriate concentration of the drug for one hour at 37° C. with continuous gentle mixing. After this pre-treatment, cells were resuspended in media supplemented with drug and incubated for 45 minutes as described above.
(§3) cDNA-PCR analyses on each culture treated with drugs, or in control cultures incubated in the absence or presence of Ara-C or TPA alone, were performed as described in Section 6.1.3 above.
To further evaluate the capacity of protein kinase inhibitors to suppress MDR1 induction by cytotoxic drugs and PKC agonists, H-9 human T cell leukemia cells were used in cDNA-PCR assays to examine induced MDR1 mRNA expression levels in the presence of such protein kinase inhibitors.

PKC = details: cited from earlier work; for IC50: Hidaka et al., 1984
protein kinase A = details: Hidaka et al., 1984; cited from earlier work
tumor = details: nude mice, cited from earlier work
MDR1 [2] = details: cited from earlier work
MDR1 [3] = type: cell-based, human
Procedure: The times of drug exposure are indicated.
as §1
Next, it was tested whether drug-induced MDR1 expression was maintained after the cytotoxic treatment. […] At different time points, MDR1 expression in the surviving cells was analyzed by dye efflux and immunofluorescence labeling with UIC2 (FIG. 3c) or by cDNA-PCR (FIG. 4e).

P-glycoprotein [4] = molecular target: T1, P-glycoprotein (Homo sapiens, UniProt P08183); test: Dye efflux (Rh123 or DiOC2 (3)) assay of drug-treated K562 cells
T1 sequence (P08183 whole entry): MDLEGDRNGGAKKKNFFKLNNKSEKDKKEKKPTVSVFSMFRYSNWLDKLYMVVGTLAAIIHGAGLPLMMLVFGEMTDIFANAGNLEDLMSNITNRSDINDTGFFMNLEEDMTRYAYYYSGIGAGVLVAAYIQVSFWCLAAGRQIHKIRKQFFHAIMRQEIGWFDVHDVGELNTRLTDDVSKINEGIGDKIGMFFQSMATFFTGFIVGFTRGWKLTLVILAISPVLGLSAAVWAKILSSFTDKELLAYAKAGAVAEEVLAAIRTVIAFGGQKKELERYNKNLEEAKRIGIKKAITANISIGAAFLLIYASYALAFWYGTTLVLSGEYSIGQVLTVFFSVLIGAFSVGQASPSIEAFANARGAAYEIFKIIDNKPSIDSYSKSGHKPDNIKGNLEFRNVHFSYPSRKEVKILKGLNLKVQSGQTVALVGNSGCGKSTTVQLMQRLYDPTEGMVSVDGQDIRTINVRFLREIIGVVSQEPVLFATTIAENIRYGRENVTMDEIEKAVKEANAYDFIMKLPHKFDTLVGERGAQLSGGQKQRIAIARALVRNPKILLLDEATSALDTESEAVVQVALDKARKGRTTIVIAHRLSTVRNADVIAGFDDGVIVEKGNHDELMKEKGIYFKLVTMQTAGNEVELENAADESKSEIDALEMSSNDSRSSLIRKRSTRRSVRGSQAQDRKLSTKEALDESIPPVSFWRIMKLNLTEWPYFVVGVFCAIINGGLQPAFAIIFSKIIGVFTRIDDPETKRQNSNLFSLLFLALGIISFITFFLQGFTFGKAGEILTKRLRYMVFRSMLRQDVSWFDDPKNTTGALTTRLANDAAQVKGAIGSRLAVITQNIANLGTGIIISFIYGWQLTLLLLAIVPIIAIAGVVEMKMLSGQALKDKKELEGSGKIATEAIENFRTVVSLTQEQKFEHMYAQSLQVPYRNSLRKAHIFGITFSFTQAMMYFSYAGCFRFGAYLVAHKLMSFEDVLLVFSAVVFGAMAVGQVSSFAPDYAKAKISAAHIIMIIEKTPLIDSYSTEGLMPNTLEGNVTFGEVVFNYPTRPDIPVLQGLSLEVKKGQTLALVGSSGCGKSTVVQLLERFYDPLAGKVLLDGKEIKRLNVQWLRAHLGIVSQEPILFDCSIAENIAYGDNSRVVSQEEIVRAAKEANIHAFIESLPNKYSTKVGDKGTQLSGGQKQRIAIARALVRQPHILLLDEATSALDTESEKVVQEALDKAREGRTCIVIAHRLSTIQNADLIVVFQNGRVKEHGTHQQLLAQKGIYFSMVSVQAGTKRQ
Procedure: (§4) Top panel: Rh123 efflux from untreated cells (-) and from cells treated with 50 μM Ara-C (ARA) for 12 hours or with 10 μAra-C for 2 to 3 days.

[5] = clinical trials; cited from earlier work
MDR1 [6] = test: Inhibition of PKC agonist (TPA or DOG) induced MDR1 expression; type: cell-based, human; details: for inhibition of TPA-induced MDR1 expression: H-9 cells, TPA 10 ng/ml overnight
Procedure: as §1
as §2, with “Each of the protein kinase inhibitors to be tested were added at their appropriate final concentrations 45 minutes prior to MDR1 induction by the addition of Ara-C” left out
as §3

P-glycoprotein [7] = system: P-glycoprotein
Procedure: Mouse IgG2a isotype control antibody was obtained from Sigma. For staining of PBL with UIC2 mAB or isotype control, 10^6 cells were stained at 4° C. with 10 μg of the antibody for 30 minutes and, after two washes, stained for 30 minutes with 10 μg of FITC-conjugated goat anti-mouse IgG2a antibody (Fisher Scientific, Fairlawn, N.J.), diluted 1:2 with PBS plus 2% FCS. Cells were then washed twice with ice-cold PBS plus 2% FCS, stained with PI and kept on ice until analysis. Essentially the same protocol was used for staining of other cell types except that 2 μg of the secondary antibody were used per 10^6 cells. In some experiments, phycoerythrine (PE)-conjugated goat anti-mouse IgG2a was used as the secondary antibody; no PI was added in such cases.

P-glycoprotein [8] = molecular target: T1, P-glycoprotein
Procedure: as §4

MRP = test: Inhibition of MRP expression in H-9 cells; type: cell-based, human; parameters: Inhibition of MRP Expression: key to the marks not given beside the values
Procedure: PCR was performed using the following primers: […]
(where β2 M represents β2 microglobulin). PCR was performed for β2 M experiments under a regime consisting of 1 cycle comprising denaturation at 94° C. for 3 minutes, primer annealing at 60° C. for 30 seconds, and primer extension at 72° C. for 1 minute, followed by 19 cycles comprising denaturation at 94° C. for 30 seconds, primer annealing at 60° C. for 30 seconds, and primer extension at 72° C. for 1 minute, followed by a final cycle comprising denaturation at 94° C. for 30 seconds, primer annealing at 60° C. for 30 seconds, and primer extension at 72° C. for 5 minutes.

[9] = K562 cells treated 3-5 days, then grown in absence of drug
[10] = KB-3-1 epidermoid carcinoma, 2 days
[11] = human leukemia and solid-tumor derived cell lines, subpopulation of treated cells

CC1CNCCN1S(=O)(=O)c1cccc2cnccc12 (stereo not drawn) [H7]
prevention of MDR1 induction by chemotherapeutic drugs (MDR1 [1]; 50 μM): prevent MDR1 induction | IC50 (PKC): 6 µM | IC50 (protein kinase A): 3 µM

O=c1c(O)c(-c2ccc(O)c(O)c2)oc2cc(O)cc(O)c12 [quercetin]
inhibition of protein kinase C (PKC; literature): inhibition of PKC activity | potentiation of anti-tumor effect of cisplatin (tumor; i.p. 20 mg/kg): potentiate the anti-tumor effect of cisplatin | effect on arsenite-induced increase in MDR1 expression (MDR1 [2]): can prevent an increase in MDR1 expression

COc1cccc2c1C(=O)c1c(O)c3c(c(O)c1C2=O)C[C@@](O)(C(=O)CO)C[C@@H]3O[C@H]1C[C@H](N)[C@H](O)[C@H](C)O1 [Adriamycin]
MDR1 mRNA expression (MDR1 [3]; H9 T-cell leukemia): MDR1 mRNA expression was induced | MDR1 mRNA induction (MDR1 [3]; K562 cells): induce MDR1 mRNA expression | maintenance of MDR1 expression after removal of the drug (MDR1 [3]; [9]): least several weeks | MDR1 mRNA expression (MDR1 [3]; [10]): MDR1 mRNA expression was induced | MDR1 induction, mRNA and protein levels (MDR1 [3]; [11]): MDR1 induction, both at the mRNA and at the protein levels, was observed | treated cells showing efflux of Rh123 or DiOC2 (3) (P-glycoprotein [4]): 3-10%

O=[As][O-].[Na+] [arsenite]
MDR1 expression (MDR1 [2]): increased

CCCCCCCCCCCCCCCCSCC(COC)COP(=O)([O-])OCC[N+](C)(C)C (stereo not drawn) [ilmofosine]
MTD, oral [5]: 200 mg/day

CN[C@@H]1C[C@H]2O[C@@](C)([C@@H]1OC)n1c3ccccc3c3c4c(c5c6ccccc6n2c5c31)C(=O)NC4 [staurosporine]
inhibition of DOG-induced MDR1 induction (MDR1 [6]; H9 cells, staurosporine 30 nM, 30 minutes prior to DOG): completely abolished MDR1 induction | inhibition of TPA-induced MDR1 induction (MDR1 [6]; H9 cells, staurosporine 30 nM, 30 minutes prior to TPA): completely abolished MDR1 induction | inhibition of TPA-induced MDR1 expression (MDR1 [6]; 30 nM): completely inhibited TPA-induced MDR1 expression | prevention of MDR1 induction by TPA, diacylglycerol, Ara-C, vinblastine, methotrexate and Adriamycin (MDR1 [1]; P-glycoprotein-negative cells, 30 nM): prevent MDR1 induction | P-glycoprotein expression, inhibitor alone (P-glycoprotein [7]; KG1a cells, staurosporine 100 nM): significant increase in P-glycoprotein expression | P-glycoprotein expression, inhibitor alone (P-glycoprotein [7]; KG1 cells): significant increase in P-glycoprotein expression | MDR1 expression, inhibitor alone (P-glycoprotein [7]; P-glycoprotein-negative H9 cells, 30 nM): did not induce MDR1 expression | anti-tumor effect at fraction of MTD (tumor; Meyer et al., 1989): 1/10 | maximum tolerated dose (MTD) (tumor; Meyer et al., 1989): 1 mg/kg

CC[C@]1(O)C[C@@H]2CN(CCc3c([nH]c4ccccc34)[C@@](C(=O)OC)(c3cc4c(cc3OC)N(C)[C@H]3[C@@](O)(C(=O)OC)[C@H](OC(C)=O)[C@]5(CC)C=CCN6CC[C@]43[C@@H]65)C2)C1 [vinblastine]
MDR1 induction, mRNA and protein levels (MDR1 [3]): MDR1 induction, both at the mRNA and at the protein levels, was observed | MDR1 mRNA expression (MDR1 [3]): MDR1 mRNA expression was induced | MDR1 mRNA induction (MDR1 [3]): induce MDR1 mRNA expression | treated cells showing efflux of Rh123 or DiOC2 (3) (P-glycoprotein [8]): 3-10%

COc1cccc2c1C(=O)c1c(O)c3c(c(O)c1C2=O)C[C@@](O)(C(C)=O)C[C@@H]3O[C@H]1C[C@H](N)[C@H](O)[C@H](C)O1 [daunorubicin]
MDR1 induction, mRNA and protein levels (MDR1 [3]): MDR1 induction, both at the mRNA and at the protein levels, was observed | MDR1 mRNA induction (MDR1 [3]): induce MDR1 mRNA expression | treated cells showing efflux of Rh123 or DiOC2 (3) (P-glycoprotein [8]): 3-10%

N=C(N)NCCNS(=O)(=O)c1cccc2cnccc12 [HA1004]
inhibition of MDR1 induction by Ara-C (MDR1 [1]; H9 cells, 60 μM HA1004, 50 μM Ara-C 22 hr): no significant inhibition | prevention of MDR1 induction (MDR1 [1]; protein kinase inhibitor inactive against PKC): totally ineffective in preventing MDR1 induction | IC50 (PKC): 40 µM | IC50 (protein kinase A): 2.3 µM

Nc1ccn([C@@H]2O[C@H](CO)[C@@H](O)[C@@H]2O)c(=O)n1 [Ara-C, 1-β-D-arabinofuranosylcytosine]
maintenance of MDR1 expression after removal of the drug (MDR1 [3]; Ara-C treated K562 population): up to 11 weeks | MDR1 mRNA expression (MDR1 [3]; EJ bladder carcinoma, 10 μM, 4 days): activated MDR1 mRNA expression | MDR1 mRNA expression (MDR1 [3]; H9 T-cell leukemia): activated MDR1 mRNA expression | maintenance of MDR1 expression after removal of the drug (MDR1 [3]; [9]): least several weeks | MDR1 mRNA expression relative to β2 -glycoprotein (MDR1 [3]; K562 cells, Ara-C): dose-dependent increase in MDR1 mRNA expression | MDR1 mRNA expression (MDR1 [3]; [10]): activated MDR1 mRNA expression | P-glycoprotein expression (Rh123 accumulation or UIC2 immunoreactivity) (MDR1 [3]; KG1 leukemia cells, Ara-C (10 μM, 1.5 days)): increased P-glycoprotein expression | MDR1 induction, mRNA and protein levels (MDR1 [3]; [11]): MDR1 induction, both at the mRNA and at the protein levels, was observed | effect on MRP expression (MRP; 25 μM Ara-C, data not shown): slight decrease in MRP expression | subpopulation of live cells showing efflux of Rh123 (P-glycoprotein [4]; Ara-C 12-72 hours): 3-17%

COC(=O)C=Cc1cc(O)ccc1O [methyl-2,5-dihydroxycinnamate]
inhibition of TPA-induced MDR1 expression (MDR1 [6]; 32 μM): completely inhibited TPA-induced MDR1 expression | inhibition of Ara-C induced MDR1 expression (MDR1 [1]; H9 cells, 25 μM Ara-C 10 h, 32 μM): ++++ | inhibition of Ara-C induced MDR1 expression (MDR1 [1]; H-9 cells, 32 μM): completely inhibit Ara-C induced MDR1 expression | inhibition of Ara-C induced MDR1 expression (MDR1 [1]; H-9 cells, 32 μM and 64 μM): inhibits MDR1 expression at both 32 μM and 64 μM to essentially the same degree | Inhibition of MRP Expression (MRP; 32 μM): ++++ | inhibition of MRP expression (MRP; 32 μM): strongly inhibited; also recorded: capable of inhibiting MRP expression

CCCCCCCCCCCCCCCCSCC(COC)COP(=O)([O-])OCC[N+](C)(C)C (stereo not drawn) [BM41440]
MTD, oral [5]: 5 mg/kg body weight

NC(=O)NO [hydroxyurea]
MDR1 induction, mRNA and protein levels (MDR1 [3]): MDR1 induction, both at the mRNA and at the protein levels, was observed | MDR1 mRNA induction (MDR1 [3]): induce MDR1 mRNA expression | treated cells showing efflux of Rh123 or DiOC2 (3) (P-glycoprotein [4]): 3-10%
